Assay results taken from patent US11666600B2, “Methods for culturing and/or differentiating hematopoietic stem cells into progenitors and uses thereof” (HEMA-QUEBEC, priority 2015, dated 2023).

Test system: Human CB CD34+-enriched cells
Test: Culture of CB CD34+-enriched hematopoietic stem cells in conditions favoring self-renewal
Type: cell-based
Conditions: for Percentage of phenotype CD34+ / Percentage of phenotype CD34+/CD38− / Percentage of phenotype CD34+/CD38−/CD45RA− / Percentage of phenotype CD34+/CD45RA− / Percentage of phenotype CD38− / Percentage of phenotype CD45RA−: 14 days
Experimental: Human cord blood (CB) was collected after obtaining written informed consent from donors, following our institutional Research Ethics Committee guidelines. Mononuclear cells (MNCs) were first separated over a Ficoll-Hypaque™ density gradient (GE Healthcare), then cryopreserved at −180° C. in Cryostor CS10™ medium ([…] Technologies). Thawed MNCs from six to eight CB were pooled before CD34 isolation. CB CD34+ cells were enriched by positive selection using the EasySep™ CD34 enrichment kit, according to the manufacturer's instructions ([…] Technologies).
Cultures were maintained in a humidified atmosphere with 5% CO2 at 37° C. or 39° C., as indicated in the Examples. Cells were diluted at 500 000 cells/mL with fresh medium every 3 to 4 days.
Cellular counts and viability were determined by adding Solution 18 (Acridine Orange and DAPI solution, ChemomMetec) and using NucleoCounter™ NC-250 for detection (ChemomMetec).
For cells expanded in conditions favoring self-renewal, surface markers were detected using the following antibodies: CD34-PE, CD45RA-FITC, and CD38-BV421. All antibodies were purchased from BD Biosciences, except for CD34-PE which was purchased from Immunotech. Labeling of aldehyde dehydrogenase (ALDH)-positive cells was performed using the ALDEFLUOR™ Kit ([…] Technologies), according to the manufacturer's instructions. 7AAD was used as a viability dye. All samples were analyzed on a FACS-Cy Flow ML system (Sysmex), and raw data were analyzed with FCS Express 5 Flow Research Edition software from at least 15 000 viable cell events acquired for each sample.
Cellular counts and viability were determined as described in Example 6.5.

[1] = 37° C. + PIC 35 nM, ACF + CC110
[2] = 37° C. + PIC 35 nM, ACF + CC110 (Table 5)
[3] = 37° C. + PIC 35 nM, ACF + HM (Table 5)
[4] = 37° C. + PIC 35 nM, SFEM + CC110
[5] = 37° C. + PIC 35 nM, SFEM II + CC110
[6] = 37° C. + PIC 35 nM, SFEM II + HM
[7] = 39° C. + PIC 35 nM, ACF + CC110
[8] = 39° C. + PIC 35 nM, ACF + CC110 (Table 5)
[9] = 39° C. + PIC 35 nM, ACF + HM (Table 5)
[10] = 39° C. + PIC 35 nM, SFEM + CC110
[11] = 39° C. + PIC 35 nM, SFEM II + CC110
[12] = 39° C. + PIC 35 nM, SFEM II + HM

Structure (SMILES): Cl.Cn1nnc(-c2ccc3c(c2)[nH]c2nc(Cc4ccccc4)nc(N[C@H]4CC[C@H](N)CC4)c23)n1 [PIC, (1r,4r)-N1-(2-benzyl-7-(2-methyl-2H-tetrazol-5-yl)-9H-pyrimido[4,5-b]indol-4-yl)cyclohexane-1,4-diamine hydrochloride]
- combined use of mild hyperthermia and PIC on expansion of CD34+/ALDH^Bright cells (39° C. + PIC 35 nM, 21 days, ACF + HM, FIG. 29): synergistic expansion
- Percentage of phenotype CD34+ [1]: 48.9%
- Percentage of phenotype CD34+/CD38− [1]: 30.3%
- Percentage of phenotype CD34+/CD38−/CD45RA− [1]: 10%
- Percentage of phenotype CD34+/CD45RA− [1]: 16.36%
- Percentage of phenotype CD38− [1]: 14.8%
- Percentage of phenotype CD45RA− [1]: 59.2%
- Percentage of phenotype CD34+ [2]: 50.98%
- Percentage of phenotype CD34+/CD45RA− [2]: 11.83%
- Percentage of phenotype CD45RA− [2]: 76.09%
- Percentage of phenotype CD34+ (37° C. + PIC 35 nM, ACF + HM): 51.5%
- Percentage of phenotype CD34+/CD38− (37° C. + PIC 35 nM, ACF + HM): 32.4%
- Percentage of phenotype CD34+/CD38−/CD45RA− (37° C. + PIC 35 nM, ACF + HM): 14.7%
- Percentage of phenotype CD34+/CD45RA− (37° C. + PIC 35 nM, ACF + HM): 22.4%
- Percentage of phenotype CD38− (37° C. + PIC 35 nM, ACF + HM): 12.05%
- Percentage of phenotype CD45RA− (37° C. + PIC 35 nM, ACF + HM): 53.4%
- Percentage of phenotype CD34+ [3]: 44.62%
- Percentage of phenotype CD34+/CD45RA− [3]: 7.67%
- Percentage of phenotype CD45RA− [3]: 77.44%
- Percentage of phenotype CD34+ [4]: 42.68%
- Percentage of phenotype CD34+/CD45RA− [4]: 6.96%
- Percentage of phenotype CD45RA− [4]: 78.72%
- Percentage of phenotype CD34+ (37° C. + PIC 35 nM, SFEM + HM): 37.4%
- Percentage of phenotype CD34+/CD45RA− (37° C. + PIC 35 nM, SFEM + HM): 6.66%
- Percentage of phenotype CD45RA− (37° C. + PIC 35 nM, SFEM + HM): 75.74%
- Percentage of phenotype CD34+ [5]: 33.38%
- Percentage of phenotype CD34+/CD45RA− [5]: 6.09%
- Percentage of phenotype CD45RA− [5]: 77.73%
- Percentage of phenotype CD34+ [6]: 30.82%
- Percentage of phenotype CD34+/CD45RA− [6]: 6.11%
- Percentage of phenotype CD45RA− [6]: 77.27%
- Percentage of phenotype CD34+ [7]: 43.7%
- Percentage of phenotype CD34+/CD38− [7]: 24.2%
- Percentage of phenotype CD34+/CD38−/CD45RA− [7]: 14.1%
- Percentage of phenotype CD34+/CD45RA− [7]: 23.05%
- Percentage of phenotype CD38− [7]: 14.45%
- Percentage of phenotype CD45RA− [7]: 40.85%
- Percentage of phenotype CD34+ [8]: 43.73%
- Percentage of phenotype CD34+/CD45RA− [8]: 18.73%
- Percentage of phenotype CD45RA− [8]: 59.72%
- Percentage of phenotype CD34+ (39° C. + PIC 35 nM, ACF + HM): 40.95%
- Percentage of phenotype CD34+/CD38− (39° C. + PIC 35 nM, ACF + HM): 22.9%
- Percentage of phenotype CD34+/CD38−/CD45RA− (39° C. + PIC 35 nM, ACF + HM): 15.7%
- Percentage of phenotype CD34+/CD45RA− (39° C. + PIC 35 nM, ACF + HM): 24.8%
- Percentage of phenotype CD38− (39° C. + PIC 35 nM, ACF + HM): 12%
- Percentage of phenotype CD45RA− (39° C. + PIC 35 nM, ACF + HM): 35.2%
- Percentage of phenotype CD34+ [9]: 44.82%
- Percentage of phenotype CD34+/CD45RA− [9]: 17.68%
- Percentage of phenotype CD45RA− [9]: 59.67%
- Percentage of phenotype CD34+ [10]: 45.36%
- Percentage of phenotype CD34+/CD45RA− [10]: 12.23%
- Percentage of phenotype CD45RA− [10]: 70.13%
- Percentage of phenotype CD34+ (39° C. + PIC 35 nM, SFEM + HM): 41.95%
- Percentage of phenotype CD34+/CD45RA− (39° C. + PIC 35 nM, SFEM + HM): 12.39%
- Percentage of phenotype CD45RA− (39° C. + PIC 35 nM, SFEM + HM): 69.88%
- Percentage of phenotype CD34+ [11]: 37.9%
- Percentage of phenotype CD34+/CD45RA− [11]: 15.03%
- Percentage of phenotype CD45RA− [11]: 63.9%
- Percentage of phenotype CD34+ [12]: 37.56%
- Percentage of phenotype CD34+/CD45RA− [12]: 15.27%
- Percentage of phenotype CD45RA− [12]: 63.45%
